For 24 compounds, IC50 and Ki results are on record in ChEMBL document CHEMBL1909046, “DrugMatrix in vitro pharmacology data”.

For one assay, the target named is Acetylcholinesterase (Homo sapiens, UniProt P22303). Description: DRUGMATRIX: Acetylcholinesterase enzyme inhibition (substrate: acetylthiocholine). The format is cell-based, HEK293. Conditions: Not Active = under 50% inhibition at 10 µM.
Assay [1] can be described thus: DRUGMATRIX: Purinergic P2X radioligand binding (ligand: [3H] alpha, beta-Methylene-ATP). It is filed as cell membranes, Oryctolagus cuniculus, New Zealand albino, Urinary bladder, Membrane. Conditions: Not Active = under 50% inhibition at 10 µM.
The target of assay [2] is Sigma non-opioid intracellular receptor 1 (Homo sapiens, UniProt Q99720). Description: DRUGMATRIX: Sigma1 radioligand binding (ligand: [3H] Haloperidol). Conditions: Not Active = under 50% inhibition at 10 µM. It is filed as cell membranes, Jurkat, Membrane.
Sequence of Sigma non-opioid intracellular receptor 1 (Q99720 whole entry): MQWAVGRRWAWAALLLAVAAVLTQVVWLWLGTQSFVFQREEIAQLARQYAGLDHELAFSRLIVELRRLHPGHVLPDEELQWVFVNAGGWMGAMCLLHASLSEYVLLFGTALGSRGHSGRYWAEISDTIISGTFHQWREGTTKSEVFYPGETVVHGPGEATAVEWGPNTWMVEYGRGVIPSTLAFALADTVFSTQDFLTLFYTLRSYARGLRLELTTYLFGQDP
Assay [3] can be described thus: DRUGMATRIX: GABAA, Chloride Channel, TBOB radioligand binding (ligand: [3H] TBOB). The format is cell membranes, Rattus norvegicus, Wistar, Cerebral cortex, Membrane. As to conditions: Not Active = under 50% inhibition at 10 µM.
A short description of assay [4]: DRUGMATRIX: Imidazoline I2, Central radioligand binding (ligand: [3H] Idazoxan). The format is cell membranes, Rattus norvegicus, Wistar, Cerebral cortex, Membrane. Conditions: Not Active = under 50% inhibition at 10 µM.
Assay [5] addresses Protein phosphatase 3 catalytic subunit alpha (Homo sapiens, UniProt Q08209). Further details: species or system Escherichia coli.

Sequence of Acetylcholinesterase (P22303 whole entry): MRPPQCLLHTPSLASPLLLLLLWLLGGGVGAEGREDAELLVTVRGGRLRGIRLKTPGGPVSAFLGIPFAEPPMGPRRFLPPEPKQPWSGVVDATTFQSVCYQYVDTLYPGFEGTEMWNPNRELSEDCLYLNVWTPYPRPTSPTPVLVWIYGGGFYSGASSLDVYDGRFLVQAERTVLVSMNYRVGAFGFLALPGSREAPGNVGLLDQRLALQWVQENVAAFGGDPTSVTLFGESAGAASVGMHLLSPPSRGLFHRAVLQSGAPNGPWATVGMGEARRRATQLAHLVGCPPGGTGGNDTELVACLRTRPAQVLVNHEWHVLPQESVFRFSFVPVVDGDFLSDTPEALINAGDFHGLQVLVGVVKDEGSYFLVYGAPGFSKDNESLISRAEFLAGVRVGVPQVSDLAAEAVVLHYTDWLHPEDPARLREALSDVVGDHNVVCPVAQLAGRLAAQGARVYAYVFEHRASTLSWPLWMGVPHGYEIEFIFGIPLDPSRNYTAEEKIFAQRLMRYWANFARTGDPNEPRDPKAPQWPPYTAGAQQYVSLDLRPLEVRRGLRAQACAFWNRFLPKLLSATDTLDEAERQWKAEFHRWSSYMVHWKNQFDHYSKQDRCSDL

With `Cc1cnc(NC(=O)C2=C(O)c3ccccc3S(=O)(=O)N2C)s1` [MELOXICAM], the IC50 entry (at Acetylcholinesterase (hek293); in assay [1]; in assay [2] (jurkat); in assay [3]; in assay [4]; in assay [5]) was “Not Active” throughout. The Ki entry in assay [1], in assay [3] and in assay [4] was “Not Active” each time.
Turning to `Nc1nc(N)c2nc(-c3ccccc3)c(N)nc2n1`, the IC50 entry (at Acetylcholinesterase (hek293); in assay [1]; in assay [2] (jurkat); in assay [3]; in assay [4]; in assay [5]) was “Not Active” each time. Also, the Ki result in assay [1], in assay [3] and in assay [4] was “Not Active” in each case.
`CC(C)(C)NC[C@H](O)COc1cccc2c1CCCC2=O` [LEVOBUNOLOL]: the IC50 – broadly, the midpoint of a concentration-inhibition curve – against Acetylcholinesterase (hek293) was “Not Active”; in assay [1] it was “Not Active”; in assay [2] (read-out: IC50), 0.773 µM; in assay [3], “Not Active”; in assay [4] it was “Not Active”; in assay [5], “Not Active”. Moreover, the Ki (as a rule, the equilibrium dissociation constant of an inhibitor or competing ligand from its target) is “Not Active” in assay [1], 0.325 µM in assay [2] (read-out: Ki), “Not Active” in assay [3] and “Not Active” in assay [4].
On to `Cc1[nH]c(=O)c(C#N)cc1-c1ccncc1` [MILRINONE], for which the IC50 result (on Acetylcholinesterase (hek293); in assay [1]; in assay [2] (jurkat); in assay [3]; in assay [4]; in assay [5]) was “Not Active” each time. For the same compound, the Ki entry in assay [1], in assay [3] and in assay [4] was “Not Active” in each case.
For the compound `Cc1cn([C@H]2C=C[C@@H](CO)O2)c(=O)[nH]c1=O` [STAVUDINE], the IC50 entry (at Acetylcholinesterase (hek293); in assay [1]; in assay [2] (jurkat); in assay [3]; in assay [4]; in assay [5]) was “Not Active” each time. The Ki result in assay [1], in assay [3] and in assay [4] was “Not Active” each time.
In the case of `CCOc1cc(N)c(Cl)cc1C(=O)NCC1CN(Cc2ccc(F)cc2)CCO1` (centres undefined) [MOSAPRIDE], the IC50 entry is “Not Active” against Acetylcholinesterase (hek293); “Not Active” in assay [1]; 0.306 µM in assay [2] (read-out: IC50); “Not Active” in assay [3]; “Not Active” in assay [4]; “Not Active” in assay [5]. The inhibitory constant (Ki) result is “Not Active” in assay [1], 0.128 µM in assay [2] (read-out: Ki), “Not Active” in assay [3] and “Not Active” in assay [4].
Take `C#C[C@]1(O)CC[C@H]2[C@@H]3[C@H](C)CC4=C(CCC(=O)C4)[C@H]3CC[C@@]21C` [TIBOLONE]: the IC50 result (on Acetylcholinesterase (hek293); in assay [1]; in assay [2] (jurkat); in assay [3]; in assay [4]; in assay [5]) was “Not Active” throughout. Also, the Ki result in assay [1], in assay [3] and in assay [4] was “Not Active” in each case.
For `CC[C@H](C)[C@@H](CO[C@@H](Cc1ccccc1)C(=O)N[C@@H](CCS(C)(=O)=O)C(=O)OC(C)C)NC[C@@H](N)CS`, the IC50 entry (on Acetylcholinesterase (hek293); in assay [1]; in assay [2] (jurkat); in assay [3]; in assay [4]; in assay [5]) was “Not Active” each time. Also, the Ki result in assay [1], in assay [3] and in assay [4] was “Not Active” in each case.
As to `OC[C@@H](O)[C@@H](O)[C@H](O)[C@H](O)CO` [MANNITOL], the IC50 entry (against Acetylcholinesterase (hek293); in assay [1]; in assay [2] (jurkat); in assay [3]; in assay [4]; in assay [5]) was “Not Active” each time. Also, the Ki entry in assay [1], in assay [3] and in assay [4] was “Not Active” throughout.
Turning to `O=[As][O-].[Na+]` [SODIUM ARSENITE], the IC50 result (at Acetylcholinesterase (hek293); in assay [1]; in assay [2] (jurkat); in assay [3]; in assay [4]; in assay [5]) was “Not Active” in each case. The Ki entry in assay [1], in assay [3] and in assay [4] was “Not Active” each time.
On to `Cc1cc2c(s1)Nc1ccccc1N=C2N1CCN(C)CC1` [OLANZAPINE], for which the IC50 result (against Acetylcholinesterase (hek293); in assay [2] (jurkat); in assay [5]) was “Not Active” in each case.
As to `Cc1ccc(Cl)c(Nc2ccccc2C(=O)O)c1Cl` [MECLOFENAMIC ACID], the IC50 entry (against Acetylcholinesterase (hek293); in assay [1]; in assay [2] (jurkat); in assay [3]; in assay [4]; in assay [5]) was “Not Active” in each case. Moreover, the Ki result in assay [1], in assay [3] and in assay [4] was “Not Active” each time.
In the case of `CCOC(=O)C1=C(C)NC(C)=C(C(=O)OCC)C1c1ccccc1/C=C/C(=O)OC(C)(C)C` [LACIDIPINE], the IC50 entry (against Acetylcholinesterase (hek293); in assay [1]; in assay [2] (jurkat); in assay [3]; in assay [4]; in assay [5]) was “Not Active” in each case. The Ki entry in assay [1], in assay [3] and in assay [4] was “Not Active” throughout.
As for `CNCCCC12CCC(c3ccccc31)c1ccccc12` [MAPROTILINE], the IC50 result (at Acetylcholinesterase (hek293); in assay [2] (jurkat); in assay [5]) was “Not Active” in each case.
For `O=C(c1ccccc1)c1ccc2n1CCC2C(=O)O` (centres undefined) [KETOROLAC], the IC50 entry (against Acetylcholinesterase (hek293); in assay [1]; in assay [2] (jurkat); in assay [3]; in assay [4]; in assay [5]) was “Not Active” in each case. For the same compound, the Ki result in assay [1], in assay [3] and in assay [4] was “Not Active” throughout.
For `CCN(CC)N=O` [N-NITROSODIETHYLAMINE], the IC50 result (against Acetylcholinesterase (hek293); in assay [1]; in assay [2] (jurkat); in assay [3]; in assay [4]; in assay [5]) was “Not Active” throughout. Moreover, the Ki entry in assay [1], in assay [3] and in assay [4] was “Not Active” in each case.
In the case of `CO[C@@]12[C@H](COC(N)=O)C3=C(C(=O)C(C)=C(N)C3=O)N1C[C@@H]1N[C@@H]12` [MITOMYCIN], the IC50 result (against Acetylcholinesterase (hek293); in assay [1]; in assay [2] (jurkat); in assay [3]; in assay [4]; in assay [5]) was “Not Active” throughout. Besides, the Ki result in assay [1], in assay [3] and in assay [4] was “Not Active” each time.
Regarding `Cc1ccc(S(=O)(=O)NC(=O)NN2CCCCCC2)cc1` [TOLAZAMIDE], the IC50 entry (against Acetylcholinesterase (hek293); in assay [1]; in assay [2] (jurkat); in assay [3]; in assay [4]; in assay [5]) was “Not Active” each time. Further, the Ki entry in assay [1], in assay [3] and in assay [4] was “Not Active” in each case.
Turning to `CCC(C)(C)C(=O)O[C@H]1C[C@@H](C)C=C2C=C[C@H](C)[C@H](CC[C@@H]3C[C@@H](O)CC(=O)O3)[C@H]21` [SIMVASTATIN], the IC50 result (at Acetylcholinesterase (hek293); in assay [1]; in assay [2] (jurkat); in assay [3]; in assay [4]; in assay [5]) was “Not Active” in each case. Also, the Ki entry in assay [1], in assay [3] and in assay [4] was “Not Active” each time.
On to LEAD(IV) ACETATE, for which the IC50 result (against Acetylcholinesterase (hek293); in assay [1]; in assay [2] (jurkat); in assay [3]; in assay [4]; in assay [5]) was “Not Active” throughout. The Ki entry (on Acetylcholinesterase (hek293); in assay [1]; in assay [2] (jurkat); in assay [3]; in assay [4]; in assay [5]) was “Not Active” each time.
Take `CCN1CCCC1CNC(=O)c1cc(S(N)(=O)=O)ccc1OC` (centres undefined) [SULPIRIDE]: the IC50 entry (at Acetylcholinesterase (hek293); in assay [1]; in assay [2] (jurkat); in assay [3]; in assay [4]; in assay [5]) was “Not Active” throughout. The Ki entry in assay [1], in assay [3] and in assay [4] was “Not Active” in each case.
As for `CC[C@H](C)C(=O)O[C@H]1CCC=C2C=C[C@H](C)[C@H](CC[C@@H]3C[C@@H](O)CC(=O)O3)[C@H]21` [MEVASTATIN], the IC50 entry (at Acetylcholinesterase (hek293); in assay [1]; in assay [2] (jurkat); in assay [3]; in assay [4]; in assay [5]) was “Not Active” each time. For the same compound, the Ki entry in assay [1], in assay [3] and in assay [4] was “Not Active” each time.
In the case of `CN1C[C@H](CNC(=O)OCc2ccccc2)C[C@@H]2c3cccc4c3c(cn4C)C[C@H]21` [METERGOLINE], the IC50 at Acetylcholinesterase (read-out: IC50) is 1.34 µM; in assay [1], “Not Active”; in assay [2] (jurkat) it was “Not Active”; in assay [3] it was “Not Active”; in assay [4] (read-out: IC50), 1.92 µM; in assay [5], “Not Active”. The Ki result in assay [1] was “Not Active”; in assay [3] it was “Not Active”; in assay [4] (read-out: Ki) it was 1.28 µM.
Turning to `CN(C)CCC=C1c2ccccc2COc2ccccc21` [DOXEPIN], the IC50 result against Acetylcholinesterase (hek293) was “Not Active”; in assay [2] (read-out: IC50), 0.631 µM; in assay [5] it was “Not Active”. Moreover, the Ki in assay [2] (read-out: Ki) is 0.265 µM.
